Literature values in patent US6967217B1, “Process and composition for enhancing the action of vitamin a on the cellular activity of an individual, and use of vitamin c” (Natura Cosmetico S.A., priority 1998, dated 2005).

System: wrinkles
Conditions: Retinol 0.034%; men and women with age between 22 and 34 years

## CC1=C(/C=C/C(C)=C/C=C/C(C)=C/CO)C(C)(C)CCC1 [Retinol]
  effect on wrinkles: reduce the amount and the deepness of wrinkles
